Assay results taken from patent US20110178015A1, “METHODS OF TREATMENT USING BIASED LIGANDS FOR RECEPTORS SUCH AS THE PTH RECEPTOR” (priority 2007, published 2011).
Entries after “also recorded” stand apart in the source; their conditions may differ.

Key:
endogenous PTH1R = biological target: T1, endogenous PTH1R (Mus musculus, UniProt P41593); assay: cAMP accumulation in primary osteoblasts (POB); type: cell-based, mice; details: 100 nM PTH(1-34) or 1 μM PTH-βarr, 5 min
T1 construct: stimulation of endogenous PTH1R in primary murine osteoblasts (POB); endogenous in cells; host or cells: primary osteoblasts (POB) from WT and β-arrestin 2−/− C57BL/6 mice
T1 sequence (P41593 27-591): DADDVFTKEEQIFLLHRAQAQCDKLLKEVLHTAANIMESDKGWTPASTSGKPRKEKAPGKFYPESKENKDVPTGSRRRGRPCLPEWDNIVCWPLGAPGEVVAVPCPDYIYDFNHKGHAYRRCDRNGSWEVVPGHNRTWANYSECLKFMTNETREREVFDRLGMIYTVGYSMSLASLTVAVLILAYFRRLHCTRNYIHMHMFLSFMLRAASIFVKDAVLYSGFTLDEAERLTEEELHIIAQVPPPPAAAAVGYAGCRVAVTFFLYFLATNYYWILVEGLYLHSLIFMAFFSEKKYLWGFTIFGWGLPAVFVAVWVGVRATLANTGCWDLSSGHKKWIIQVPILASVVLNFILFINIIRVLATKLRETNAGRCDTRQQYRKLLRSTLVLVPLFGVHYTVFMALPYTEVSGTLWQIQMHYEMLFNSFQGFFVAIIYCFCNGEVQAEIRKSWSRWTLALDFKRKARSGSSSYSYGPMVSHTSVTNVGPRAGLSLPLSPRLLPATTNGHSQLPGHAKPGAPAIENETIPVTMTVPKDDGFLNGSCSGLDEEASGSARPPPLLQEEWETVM
Method: FIG. 1. […] Cells were treated with 100 nM PTH(1-34) (PTH) or 1 μM PTH-βarr. […] Data correspond to the mean±SEM from four independent experiments. (***, P<0.001 compared with the nonstimulated WT POB; †††, P<0.001; ††, P<0.01 compared with the non-stimulated β-arrestin 2−/− POBs).
The increased basal cAMP in the β-arrestin cells is likely due to the loss of β-arrestin mediated desensitization of PTH1R and/or other Gs coupled 7TMRs.
There was no significant difference in cAMP generated between WT and β-arrestin 2−/−POB at 5 min.

ERK1/2 = ERK1/2 MAP kinase activation (phosphorylation) in primary osteoblasts; type: cell-based, mice; details: 5 min, 100 nM PTH(1-34) or 1 μM PTH-βarr; for ERK1/2 activation: β-arrestin 2−/− POB; for ERK1/2 phosphorylation: WT POB
Method: FIG. 2 PTH-βarr stimulates β-arrestin mediated ERK1/2 activation. PTH-βarr stimulated ERK1/2 activation, was assessed in POBs isolated from β-arrestin 2−/− and WT C57BL/6 mice. POBs were treated with 100 nM PTH(1-34) (PTH) or 1 μM PTH-βarr for 5 min. […] The effect of PTH-barr stimulation on ERK1/2 activation in the WT obs was absent in the β-arrestin 2−/− obs. Values presented are the fold ERK1/2 phosphorylation over non-stimulated controls. Data represent the mean±SEM from four independent experiments. (**, P<0.01 compared with the non-stimulated WT POBs; ††, P<0.01 compared with the non-stimulated β-arrestin 2−/− POBs).
PTH(1-34) and PTH-βarr stimulated ERK1/2 MAP kinase activation was assessed in WT and β-arrestin 2−/− POB after treatment for 5 min with 100 nM PTH(1-34) or 1 μM PTH-βarr (FIG. 1b).

[1] = tested on: WT and β-arrestin 2−/− mice; assay: Bone mineral density after intermittent daily IP treatment; type: in vivo; details: once daily IP 40 mg/kg/day, 4 and 8 weeks
Method: FIG. 3. PTH-βarr increases lumbar spine bone mineral density. The effect of daily administration of vehicle, PTH (1-34)(PTH) or PTH-βarr on bone mineral density after 4 and 8 weeks was measured in the (a) lumbar spine of WT mice (b) lumbar spine of β-arrestin 2−/− (c) femur shaft of WT mice and (d) femoral shaft of β-arrestin 2−/− mice. […] Data represents the mean±SEM of at least 7 independent mouse measurements. (*, P<0.05; **, P<0.01 compared with vehicle treated controls)
β-arrestin 2−/− mice are fertile and present no gross phenotypic abnormalities. Further, no gross alterations in skeletal morphology or size were detected by x-ray analysis of β-arrestin 2−/− mice compared to 6 WT mice (data not shown). To examine the contribution of β-arrestin mediated signaling to regulation of the anabolic effects of PTH on bone, 9 week old WT and β-arrestin 2−/− mice were treated with intermittent (i.e. once daily) IP injection of PTH (1-34) (40 mg/kg/day), the β-arrestin biased agonist PTH-βarr (40 mg/kg/day). Its usually mg/kg/day) or vehicle. Bone mineral density (BMD) measurements were obtained at baseline and serially over 4 to 8 wks (FIG. 2). […] There were no significant differences in whole body BMD or femoral BMD between the WT or β-arrestin 2−/− mice. […] Consistent with earlier reports, these increases in BMD were absent in the PTH(1-34) treated β-arrestin 2−/− mice (FIGS. 2B and D). […] The decrease in BMD in β-arrestin 2−/− mice treated with PTH-βarr, are likely due to the inhibition of G protein mediated signaling as well as the absence of β-arrestin 2 mediated signaling.

[2] = tested on: WT and β-arrestin 2−/− mice; assay: Quantitative histomorphometry of lumbar spine sections; type: in vivo; details: for osteoblast surface vs vehicle / osteoclast surface (osteoclast recruitment) / osteoid surface vs vehicle: WT mice, 8 wks, lumbar spine sections
From the text: Dynamic histomorphometric data were consistent with the qCT of trabecular bone morphology. […] As expected there was an increase in osteoclast surface in the PTH (1-34) treated animals.

[3] = tested on: WT and β-arrestin 2−/− mice; assay: Serum osteocalcin, marker of bone formation; type: in vivo; details: 4 weeks of treatment
Method: FIG. 5. PTH-βarr increases serum osteocalcin and has no effect on urine Deoxypyridinoline (DPD) excretion. (a) Serum osteocalcin, a biochemical marker of bone formation was measured in WT and β-arrestin 2−/− mice after 4 weeks of treatment with vehicle, PTH (1-34) (PTH) or PTH-βarr. […] There was no increase in serum osteocalcin in the arrestin 2−/− mice treated with PTH-βarr compared to placebo. […] (b) 24 hour urine DPD, a marker of bone degradation and bone resorption, was also measured in WT and β-arrestin 2−/− mice after 4 weeks of treatment with vehicle, PTH or PTH-βarr. […] Data represent the mean±SEM of at least 7 independent mouse measurements. (***, P<0.001; *, P<0.05; compared with vehicle treated WT mice; †††, P<0.001; ††, P<0.01 compared with vehicle treated β-arrestin 2−/− mice).
To delineate the cellular mechanisms contributing to the metabolic effects of PTH(1-34) and PTH-βarr administration in WT and β-arrestin 2−/− mice, serum and urine markers of bone turnover were assessed.

(D-Trp12, Tyr34)-PTH(7-34) [PTH-βarr]
cAMP accumulation (endogenous PTH1R; WT POB): unable to stimulate cAMP; also recorded: did not increase cAMP
cAMP accumulation (endogenous PTH1R; β-arrestin 2−/− POB): decreases basal cAMP levels; also recorded: significantly decreased
ERK1/2 activation (ERK1/2): failed to activate ERK1/2
ERK1/2 activation (ERK1/2; listed as PTH-barr): absent
femoral BMD vs vehicle ([1]; WT mice): did not significantly affect
lumbar spine BMD vs vehicle ([1]; WT mice, 40 mg/kg/day): significant increases
femoral BMD vs vehicle ([1]; β-arrestin 2−/− mice): decreases
osteoblast surface vs vehicle [2]: increased
osteoclast surface (osteoclast recruitment) [2]: no effect
osteoid surface vs vehicle [2]: increased
serum osteocalcin vs vehicle ([3]; WT mice): significantly increased
serum osteocalcin vs vehicle ([3]; β-arrestin 2−/− mice): no increase; also recorded: no significant change

PTH(1-34) [reference compound]
cAMP accumulation (endogenous PTH1R; WT POB): robust increases
cAMP accumulation (endogenous PTH1R; WT POB, listed as PTH): robust increase
cAMP accumulation (endogenous PTH1R; β-arrestin 2−/− POB): robust increases
cAMP accumulation (endogenous PTH1R; β-arrestin 2−/− POB, listed as PTH): robust increase
ERK1/2 phosphorylation (ERK1/2): approximately 3 fold over basal
ERK1/2 phosphorylation (ERK1/2; listed as PTH): robustly activated
ERK1/2 activation (ERK1/2): responded to PTH(1-34) much as WT POB
femoral BMD vs vehicle ([1]; WT mice): marked increases
lumbar spine BMD vs vehicle ([1]; WT mice): marked increases
femoral BMD vs vehicle ([1]; β-arrestin 2−/− mice): absent
lumbar spine BMD vs vehicle ([1]; β-arrestin 2−/− mice): absent
osteoblast surface vs vehicle [2]: increased
osteoclast surface (osteoclast recruitment) [2]: increase
osteoid surface vs vehicle [2]: increased
osteoclast formation ([2]; in the absence of β-arrestin 2): accelerates
serum osteocalcin vs vehicle ([3]; WT mice): significantly increased
serum osteocalcin vs vehicle ([3]; WT mice, listed as PTH): significantly increase
serum osteocalcin vs vehicle ([3]; β-arrestin 2−/− mice): increased
